Measured values as given in patent publication EP1571449A1 (priority 2004, dated 2005).
Read-outs that look alike come from different tables or passages of the source.

Assays:
PrP^C = PrP^C (Homo sapiens, UniProt P04156); type: binding
plasma PrP^C = plasma PrP^C (Homo sapiens, UniProt P04156); conditions: plasma mixed with 400 µM CuCl2, copper containing gradient, 16 h at 100,000 x g, 4 °C

[Cl][Cu][Cl] [CuCl2]
PrP^C detection, assay 2 (PrP^C): much more improved detection of PrP^C
PrP^C detection, assay 3 (PrP^C): slightly worse detection of PrP^C as compared to assay 2
effect on detection of bound prion proteins (assay sensitivity) (PrP^C; 15 min): improvement in sensitivity
migration pattern of PrP^C immunoreactivity in sucrose gradient (plasma PrP^C): the high molecular weight peak, present in EDTA plasma, disappeared

O=S(=O)([O-])[O-].[Cu+2] [CuSO4]
dose relation of the effect on assay sensitivity (PrP^C): dose-related effects on the assay sensitivity
effect on detection of bound prion proteins (assay sensitivity) (PrP^C): improvement in sensitivity
increase in sensitivity (PrP^C): more than 3000 fold
plasma dilution at which twice the backgound signal was detected (PrP^C): 156250 times diluted

O=C(O)CN(CCN(CC(=O)O)CC(=O)O)CC(=O)O [EDTA, reference compound]
PrP^C detection, assay 4 (PrP^C): blocking effects
PrP^C detection, assay 5 (PrP^C): complete inhibition of the copper effects
PrP^C detection, assay 6 (PrP^C): the copper-induced changes of PrP^C disappeared
PrP^C detection, assay 7 (PrP^C): improved detection of PrP^C was observed
effect of EDTA on the copper-induced assay sensitivity increase (PrP^C): dose-related reduction of copper-induced assay sensitivity increase

OO [H2O2, hydrogen peroxide]
dose relation of the effect on assay sensitivity (PrP^C): dose-related effects on the assay sensitivity
effect on detection of bound prion proteins (assay sensitivity) (PrP^C): enhanced the detection of bound prion proteins

[Cl][Mn][Cl] [MnCl2]
effect on detection of bound prion proteins (assay sensitivity) (PrP^C): improvement in sensitivity
times higher concentration needed for the same signal increasing effect as compared to zinc (PrP^C): about 12 times

O=S(=O)([O-])[O-].[Zn+2] [ZnSO4]
effect on detection of bound prion proteins (assay sensitivity) (PrP^C): improvement in sensitivity

O=CO [formic acid]
effect on detection of bound prion proteins (assay sensitivity) (PrP^C): had no effect on the assay
